Patent US8273724B2, “Melanoma antigens and their use in diagnostic and therapeutic methods” (The United States of America, as represented by the …, priority 1994, dated 2012)
Where a SMILES comes first, the peptide text is derived from it.

Test system: T2 cell lines preincubated with peptide
Assay: Recognition of modified peptides by natural epitope (M9-2, G9-154, G9-209, G9-280) reactive T-cells, 51Cr release on peptide-pulsed T2 cells (Example 5)
Format: cell-based, human
Procedure: Assessment of antigen recognition by CTL. ^51Cr release cytotoxic assays were performed to detect the recognition of peptide and melanoma cells by CTL. To analyze peptide recognition, T2 cell lines were preincubated for 2 h at 37° C. with 1 ug/ml peptide, washed and used as target cells in a ^51Cr release cytotoxic assay. The melanoma lines 624mel was established in our laboratory (See Example 1).
In order to make more immunogenic peptides for induction of anti-melanoma T-cells than natural melanoma epitopes, a variety of peptides in which at least 1 amino acid was changed based on consensus motifs in peptides binding to a specific MHC Class I allele Falk, et al. (1991) Nature 351:290; Kubo et al. (1994) J. Immunol 152:3913; Parker, K. et al. (1992) Journal of Immunology 149:3580; Ruppert, J. et al. (1993) Cell 74:929-937) (Tables 14, 15, 16, and 17). […] By changing amino acid at the 1st, 2nd, 3rd or 9th positions which are important for HLA-A2 binding to the peptide, but less important for recognition by T-cell receptors, artificial peptides which can bind to HLA-A2.1 with higher affinity and still be recognized by natural epitope specific T-cells may be generated.

SMILES	Recognition by G9-209 reactive T-cell	Recognition by M9-2 reactive T-cell	also measured
CC[C@H](C)[C@H](N)C(=O)N[C@@H](CC(C)C)C(=O)N[C@@H](C)C(=O)N[C@@H](CCC(N)=O)C(=O)N[C@H](C(=O)N1CCC[C@H]1C(=O)N[C@@H](Cc1ccccc1)C(=O)N[C@@H](CO)C(=O)N[C@H](C(=O)O)C(C)C)C(C)C [G9-209-2L3A]	−		
CC(C)C[C@H](NC(=O)[C@H](C)N)C(=O)N[C@@H](Cc1c[nH]c2ccccc12)C(=O)NCC(=O)N[C@@H](CCC(N)=O)C(=O)N[C@@H](Cc1ccc(O)cc1)C(=O)N[C@@H](Cc1c[nH]c2ccccc12)C(=O)N[C@@H](CCC(N)=O)C(=O)N[C@H](C(=O)O)C(C)C [G9-154-1A2L] (H-ALWGQYWQV-OH; N-terminus and C-terminus assumed)			Recognition by G9-154 reactive T-cell: + (+, recognized)
CC[C@H](C)[C@H](NC(=O)CNC(=O)[C@H](CCSC)NC(=O)[C@@H](N)CCCCN)C(=O)NCC(=O)N[C@H](C(=O)N[C@@H](CC(C)C)C(=O)N[C@H](C(=O)N[C@H](C(=O)O)C(C)C)[C@@H](C)O)[C@@H](C)CC [M9-2-1K2M]		−	
CC[C@H](C)[C@H](N)C(=O)N[C@H](C(=O)N[C@@H](CCSC)C(=O)N[C@@H](CCC(N)=O)C(=O)N[C@H](C(=O)N1CCC[C@H]1C(=O)N[C@@H](Cc1ccccc1)C(=O)N[C@@H](CO)C(=O)N[C@H](C(=O)O)C(C)C)C(C)C)[C@@H](C)O [G9-209-3M] (H-ITMQVPFSV-OH; N-terminus and C-terminus assumed)	−		
CC[C@H](C)[C@H](N)C(=O)N[C@@H](CC(C)C)C(=O)N[C@@H](CO)C(=O)N[C@@H](CCC(N)=O)C(=O)N[C@H](C(=O)N1CCC[C@H]1C(=O)N[C@@H](Cc1ccccc1)C(=O)N[C@@H](CO)C(=O)N[C@H](C(=O)O)C(C)C)C(C)C [G9-209-2L3S] (H-ILSQVPFSV-OH; N-terminus and C-terminus assumed)	−		
CC[C@H](C)[C@H](NC(=O)CNC(=O)[C@@H](NC(=O)[C@H](Cc1ccccc1)NC(=O)[C@H](C)NC(=O)[C@H](C)N)[C@@H](C)CC)C(=O)N[C@@H](CC(C)C)C(=O)N[C@H](C(=O)N[C@H](C(=O)O)C(C)C)[C@@H](C)O [M9-2-3F]		−	
CC[C@H](C)[C@H](N)C(=O)N[C@@H](CC(C)C)C(=O)N[C@@H](Cc1c[nH]c2ccccc12)C(=O)N[C@@H](CCC(N)=O)C(=O)N[C@H](C(=O)N1CCC[C@H]1C(=O)N[C@@H](Cc1ccccc1)C(=O)N[C@@H](CO)C(=O)N[C@H](C(=O)O)C(C)C)C(C)C [G9-209-2L3W] (H-ILWQVPFSV-OH; N-terminus and C-terminus assumed)	−		
CC[C@H](C)[C@H](N)C(=O)N[C@@H](CC(C)C)C(=O)N[C@@H](Cc1ccc(O)cc1)C(=O)N[C@@H](CCC(N)=O)C(=O)N[C@H](C(=O)N1CCC[C@H]1C(=O)N[C@@H](Cc1ccccc1)C(=O)N[C@@H](CO)C(=O)N[C@H](C(=O)O)C(C)C)C(C)C [G9-209-2L3Y] (H-ILYQVPFSV-OH; N-terminus and C-terminus assumed)	−		
CC[C@H](C)[C@H](N)C(=O)N[C@@H](CC(C)C)C(=O)N[C@@H](CCSC)C(=O)N[C@@H](CCC(N)=O)C(=O)N[C@H](C(=O)N1CCC[C@H]1C(=O)N[C@@H](Cc1ccccc1)C(=O)N[C@@H](CO)C(=O)N[C@H](C(=O)O)C(C)C)C(C)C [G9-209-2L3M]	−		
CC[C@H](C)[C@H](N)C(=O)N[C@H](C(=O)N[C@@H](Cc1c[nH]c2ccccc12)C(=O)N[C@@H](CCC(N)=O)C(=O)N[C@H](C(=O)N1CCC[C@H]1C(=O)N[C@@H](Cc1ccccc1)C(=O)N[C@@H](CO)C(=O)N[C@H](C(=O)O)C(C)C)C(C)C)[C@@H](C)O [G9-209-3W]	−		
CC[C@H](C)[C@H](NC(=O)CNC(=O)[C@@H](NC(=O)[C@H](Cc1c[nH]c2ccccc12)NC(=O)[C@H](CC(C)C)NC(=O)[C@H](C)N)[C@@H](C)CC)C(=O)N[C@@H](CC(C)C)C(=O)N[C@H](C(=O)N[C@H](C(=O)O)C(C)C)[C@@H](C)O [M9-2-2L3W]		−	
CC[C@H](C)[C@H](NC(=O)CNC(=O)[C@@H](NC(=O)[C@H](Cc1ccc(O)cc1)NC(=O)[C@H](CC(C)C)NC(=O)[C@H](C)N)[C@@H](C)CC)C(=O)N[C@@H](CC(C)C)C(=O)N[C@H](C(=O)N[C@H](C(=O)O)C(C)C)[C@@H](C)O [M9-2-2L3Y]		−	
CC[C@H](C)[C@H](N)C(=O)N[C@H](C(=O)N[C@@H](CO)C(=O)N[C@@H](CCC(N)=O)C(=O)N[C@H](C(=O)N1CCC[C@H]1C(=O)N[C@@H](Cc1ccccc1)C(=O)N[C@@H](CO)C(=O)N[C@H](C(=O)O)C(C)C)C(C)C)[C@@H](C)O [G9-209-3S]	−		
CC[C@H](C)[C@H](NC(=O)CNC(=O)[C@H](CCSC)NC(=O)[C@H](C)N)C(=O)NCC(=O)N[C@H](C(=O)N[C@@H](CC(C)C)C(=O)N[C@H](C(=O)N[C@H](C(=O)O)C(C)C)[C@@H](C)O)[C@@H](C)CC [M9-2-2M]		−	
CC[C@H](C)[C@H](N)C(=O)N[C@H](C(=O)N[C@@H](Cc1ccccc1)C(=O)N[C@@H](CCC(N)=O)C(=O)N[C@H](C(=O)N1CCC[C@H]1C(=O)N[C@@H](Cc1ccccc1)C(=O)N[C@@H](CO)C(=O)N[C@H](C(=O)O)C(C)C)C(C)C)[C@@H](C)O [G9-209-3F] (H-ITFQVPFSV-OH; N-terminus and C-terminus assumed)	−		
CC[C@H](C)[C@H](N)C(=O)N[C@H](C(=O)N[C@@H](Cc1ccc(O)cc1)C(=O)N[C@@H](CCC(N)=O)C(=O)N[C@H](C(=O)N1CCC[C@H]1C(=O)N[C@@H](Cc1ccccc1)C(=O)N[C@@H](CO)C(=O)N[C@H](C(=O)O)C(C)C)C(C)C)[C@@H](C)O [G9-209-3Y] (H-ITYQVPFSV-OH; N-terminus and C-terminus assumed)	−		
CC[C@H](C)[C@H](NC(=O)CNC(=O)[C@H](C)NC(=O)[C@@H](N)Cc1c[nH]c2ccccc12)C(=O)NCC(=O)N[C@H](C(=O)N[C@@H](CC(C)C)C(=O)N[C@H](C(=O)N[C@H](C(=O)O)C(C)C)[C@@H](C)O)[C@@H](C)CC [M9-2-1W]		+ (+, recognized)	
CC[C@H](C)[C@H](NC(=O)CNC(=O)[C@H](CC(C)C)NC(=O)[C@@H](N)Cc1ccc(O)cc1)C(=O)NCC(=O)N[C@H](C(=O)N[C@@H](CC(C)C)C(=O)N[C@H](C(=O)N[C@H](C(=O)O)C(C)C)[C@@H](C)O)[C@@H](C)CC [M9-2-1Y2L]		−	
CC[C@H](C)[C@H](NC(=O)CNC(=O)[C@@H](NC(=O)[C@H](Cc1c[nH]c2ccccc12)NC(=O)[C@H](C)NC(=O)[C@H](C)N)[C@@H](C)CC)C(=O)N[C@@H](CC(C)C)C(=O)N[C@H](C(=O)N[C@H](C(=O)O)C(C)C)[C@@H](C)O [M9-2-3W]		−	
CC[C@H](C)[C@H](NC(=O)CNC(=O)[C@H](CC(C)C)NC(=O)[C@@H](N)CCCCN)C(=O)NCC(=O)N[C@H](C(=O)N[C@@H](CC(C)C)C(=O)N[C@H](C(=O)N[C@H](C(=O)O)C(C)C)[C@@H](C)O)[C@@H](C)CC [M9-2-1K2L]		−	
CC(C)[C@H](NC(=O)[C@H](CO)NC(=O)[C@H](Cc1ccccc1)NC(=O)[C@@H]1CCCN1C(=O)[C@@H](NC(=O)[C@H](CCC(N)=O)NC(=O)[C@H](CC(=O)O)NC(=O)[C@@H](NC(=O)[C@@H](N)Cc1c[nH]c2ccccc12)[C@@H](C)O)C(C)C)C(=O)O [G9-209-1W] (H-WTDQVPFSV-OH; N-terminus and C-terminus assumed)	+ (+, recognized)		
CC[C@H](C)[C@H](NC(=O)CNC(=O)[C@@H](NC(=O)[C@H](Cc1ccccc1)NC(=O)[C@H](CC(C)C)NC(=O)[C@H](C)N)[C@@H](C)CC)C(=O)N[C@@H](CC(C)C)C(=O)N[C@H](C(=O)N[C@H](C(=O)O)C(C)C)[C@@H](C)O [M9-2-2L3F]		−	
CC[C@H](C)[C@H](NC(=O)CNC(=O)[C@H](CC(C)C)NC(=O)[C@@H](N)Cc1ccccc1)C(=O)NCC(=O)N[C@H](C(=O)N[C@@H](CC(C)C)C(=O)N[C@H](C(=O)N[C@H](C(=O)O)C(C)C)[C@@H](C)O)[C@@H](C)CC [M9-2-1F2L]		−	
CC[C@H](C)[C@H](N)C(=O)N[C@H](C(=O)N[C@@H](C)C(=O)N[C@@H](CCC(N)=O)C(=O)N[C@H](C(=O)N1CCC[C@H]1C(=O)N[C@@H](Cc1ccccc1)C(=O)N[C@@H](CO)C(=O)N[C@H](C(=O)O)C(C)C)C(C)C)[C@@H](C)O [G9-209-3A]	−		
CC[C@H](C)[C@H](N)C(=O)N[C@@H](CC(C)C)C(=O)N[C@@H](Cc1ccccc1)C(=O)N[C@@H](CCC(N)=O)C(=O)N[C@H](C(=O)N1CCC[C@H]1C(=O)N[C@@H](Cc1ccccc1)C(=O)N[C@@H](CO)C(=O)N[C@H](C(=O)O)C(C)C)C(C)C [G9-209-2L3F]	−		
CC[C@H](C)[C@H](NC(=O)CNC(=O)[C@@H](NC(=O)[C@H](C)N)[C@@H](C)CC)C(=O)NCC(=O)N[C@H](C(=O)N[C@@H](CC(C)C)C(=O)N[C@H](C(=O)N[C@H](C(=O)O)C(C)C)[C@@H](C)O)[C@@H](C)CC [M9-2-2I]		−	
CC[C@H](C)[C@H](NC(=O)CNC(=O)[C@H](CC(C)C)NC(=O)[C@@H](N)Cc1c[nH]c2ccccc12)C(=O)NCC(=O)N[C@H](C(=O)N[C@@H](CC(C)C)C(=O)N[C@H](C(=O)N[C@H](C(=O)O)C(C)C)[C@@H](C)O)[C@@H](C)CC [M9-2-1W2L]		−	
